pEC50: −log10 of the molar value.
Legend:
ABCG2 = biological target: T1, ABCG2 (Homo sapiens, UniProt Q9UNQ0); experiment: vanadate-sensitive ATPase stimulation in insect cell membranes expressing ABCG2; format: biochemical
T1 sequence (Q9UNQ0 1-655): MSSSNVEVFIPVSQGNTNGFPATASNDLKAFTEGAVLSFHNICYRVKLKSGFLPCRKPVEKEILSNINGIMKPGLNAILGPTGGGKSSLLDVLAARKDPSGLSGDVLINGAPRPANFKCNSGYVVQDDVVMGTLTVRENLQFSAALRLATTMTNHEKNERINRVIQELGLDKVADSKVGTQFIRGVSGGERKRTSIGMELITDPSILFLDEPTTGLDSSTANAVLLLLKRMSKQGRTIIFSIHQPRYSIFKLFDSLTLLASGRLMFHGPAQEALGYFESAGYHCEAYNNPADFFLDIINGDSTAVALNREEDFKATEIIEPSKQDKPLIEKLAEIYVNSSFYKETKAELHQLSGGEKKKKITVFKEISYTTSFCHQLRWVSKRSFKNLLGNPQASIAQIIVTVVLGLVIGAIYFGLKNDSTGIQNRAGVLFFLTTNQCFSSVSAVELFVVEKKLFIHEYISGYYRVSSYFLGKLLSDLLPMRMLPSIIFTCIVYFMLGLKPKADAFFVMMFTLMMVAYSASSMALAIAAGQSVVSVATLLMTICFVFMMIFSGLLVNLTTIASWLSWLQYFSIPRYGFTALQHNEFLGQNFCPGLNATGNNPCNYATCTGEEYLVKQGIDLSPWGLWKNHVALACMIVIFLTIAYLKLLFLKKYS

ABCB1 = ABCB1 (Homo sapiens, UniProt P08183); experiment: vanadate-sensitive ATPase stimulation in insect cell membranes expressing ABCB1; format: biochemical
Sequence of ABCB1 (P08183 whole entry): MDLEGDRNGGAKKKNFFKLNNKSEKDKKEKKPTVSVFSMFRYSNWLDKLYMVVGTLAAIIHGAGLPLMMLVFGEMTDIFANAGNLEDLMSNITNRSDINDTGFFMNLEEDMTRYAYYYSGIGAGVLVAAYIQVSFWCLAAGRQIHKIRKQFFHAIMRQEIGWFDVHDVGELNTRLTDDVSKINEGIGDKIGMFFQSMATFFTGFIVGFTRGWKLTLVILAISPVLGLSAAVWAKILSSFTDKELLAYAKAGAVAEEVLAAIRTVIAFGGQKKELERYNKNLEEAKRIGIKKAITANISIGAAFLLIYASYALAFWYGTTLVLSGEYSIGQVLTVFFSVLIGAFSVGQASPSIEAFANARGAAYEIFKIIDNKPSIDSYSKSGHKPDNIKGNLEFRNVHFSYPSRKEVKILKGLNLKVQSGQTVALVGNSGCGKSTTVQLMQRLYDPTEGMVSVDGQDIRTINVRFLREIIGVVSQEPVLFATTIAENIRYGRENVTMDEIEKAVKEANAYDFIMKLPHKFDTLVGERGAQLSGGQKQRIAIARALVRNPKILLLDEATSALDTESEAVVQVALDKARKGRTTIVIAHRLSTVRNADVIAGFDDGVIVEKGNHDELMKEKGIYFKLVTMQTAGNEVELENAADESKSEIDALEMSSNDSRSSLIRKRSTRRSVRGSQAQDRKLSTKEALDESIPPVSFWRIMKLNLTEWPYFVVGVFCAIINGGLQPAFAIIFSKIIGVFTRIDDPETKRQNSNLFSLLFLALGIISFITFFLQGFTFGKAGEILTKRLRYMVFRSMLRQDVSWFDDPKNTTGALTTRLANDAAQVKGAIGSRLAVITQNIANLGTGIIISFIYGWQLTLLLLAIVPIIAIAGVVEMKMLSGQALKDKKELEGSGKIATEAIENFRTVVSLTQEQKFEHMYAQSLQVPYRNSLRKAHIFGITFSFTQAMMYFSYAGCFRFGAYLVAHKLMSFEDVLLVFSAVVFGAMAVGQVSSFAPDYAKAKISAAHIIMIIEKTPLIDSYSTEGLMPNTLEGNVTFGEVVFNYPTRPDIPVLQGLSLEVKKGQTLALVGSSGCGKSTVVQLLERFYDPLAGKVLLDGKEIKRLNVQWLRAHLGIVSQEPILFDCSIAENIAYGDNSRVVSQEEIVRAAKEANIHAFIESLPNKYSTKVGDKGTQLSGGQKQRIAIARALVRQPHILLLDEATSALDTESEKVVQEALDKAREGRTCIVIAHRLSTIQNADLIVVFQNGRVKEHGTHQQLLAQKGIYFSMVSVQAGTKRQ

## Cn1cc(-c2cc3c(N4CCN(c5ncc([C@@](C)(N)c6ccc(F)cc6)cn5)CC4)ncnn3c2)cn1 [avapritinib]
ABCG2
  pEC50: ~6.70
ABCB1
  pEC50: ~5.30
